According to US20160168126A1, “CHEMICAL COMPOUNDS” (SYNGENTA LIMITED, priority 2013, published 2016):

Tested on: a variety of test species
Assay: Post-emergence herbicidal activity (glasshouse, sprayed 8 days after sowing, evaluated after 13 days); as to Post-emergence herbicidal damage score, ABUTH (Abutilon theophrasti): key: 5=total damage to plant; 0=no damage to plant; as to Post-emergence herbicidal damage score, AMARE (Amaranthus retroflexus): key: 5=total damage to plant; 0=no damage to plant
Type: in vivo
Conditions: scale 0-5
How it was run: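 Pot-grown seedlings sprayed 8 days after sowing with active ingredient in acetone/water (50:50) plus 0.5% Tween 20. Glasshouse at 24/16 °C day/night, 14 h light, 65% humidity, watered twice daily. Damage scored after 13 days on a 0–5 scale (5 = total damage, 0 = none).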

Compound	Post-emergence herbicidal damage score, ABUTH (Abutilon theophrasti) (1000 g/ha)	Post-emergence herbicidal damage score, ALOMY (Alopecurus myosuroides) (1000 g/ha)	Post-emergence herbicidal damage score, AMARE (Amaranthus retroflexus) (1000 g/ha)	Post-emergence herbicidal damage score, ECHCG (Echinochloa crus-galli) (1000 g/ha)	Post-emergence herbicidal damage score, SETFA (Setaria faberi) (1000 g/ha)	Post-emergence herbicidal damage score, ZEAMX (Zea mays) (1000 g/ha)	Post-emergence herbicidal damage score, ABUTH (Abutilon theophrasti) (250 g/ha)	Post-emergence herbicidal damage score, ALOMY (Alopecurus myosuroides) (250 g/ha)	Post-emergence herbicidal damage score, AMARE (Amaranthus retroflexus) (250 g/ha)	Post-emergence herbicidal damage score, ECHCG (Echinochloa crus-galli) (250 g/ha)	Post-emergence herbicidal damage score, SETFA (Setaria faberi) (250 g/ha)	Post-emergence herbicidal damage score, ZEAMX (Zea mays) (250 g/ha)
CC1=C(Br)C(O)N(c2cc(C(C)(C)C)[nH]n2)C1=O (stereo not drawn) [Compound H2]	5	3	5	2	4	2						
CC(C)=CCc1cc(N2C(=O)C(C)=C(Br)C2O)nn1C (stereo not drawn) [Compound H3]	0	0	0	0	0	0						
CC1=C(Br)C(O)N(c2cc(C(F)(F)F)n(C)n2)C1=O (stereo not drawn) [Compound H4]	5	5	5	2	1	0						
CC1=C(Br)C(O)N(c2nn(C)c(C(C)(C)C)c2C#N)C1=O (stereo not drawn) [Compound H5]	2	1	2	1	1	0						
CCC1=C(Br)C(O)N(c2nn(C)c(C(C)(C)C)c2C#N)C1=O (stereo not drawn) [Compound H6]	1	2	2	1	2	0						
CC1=C(Br)C(O)N(c2cc3n(n2)CCC3(C)C)C1=O (stereo not drawn) [Compound H7]	5	5	4	3	4	1						
CC1=C(Br)C(O)N(c2cc3n(n2)CCCC3(C)C)C1=O (stereo not drawn) [Compound H8]	5	5	5	4	4	0						
CC1=C(Br)C(O)N(c2cc3n(n2)CCSC3(C)C)C1=O (stereo not drawn) [Compound H9]	4	5	4	3	3	0						
CC1=C(Br)C(O)N(c2nn(C)c3c2CCC3(C)C)C1=O (stereo not drawn) [Compound H10]	5	5	5	4	5	3						
COC1=C(C)C(=O)N(c2cc(C(C)(C)C)[nH]n2)C1O (stereo not drawn) [Compound I1]							5	3	5	3	5	1
COC1=C(C)C(=O)N(c2cc(C(C)(C)C)n(C)n2)C1O (stereo not drawn) [Compound I2]							5	4	5	3	4	1
COC1=C(C)C(=O)N(c2cc(C(F)(F)F)n(C)n2)C1O (stereo not drawn) [Compound I3]	5	5	5	5	5	4						
COC1=C(C)C(=O)N(c2nn(C)c3c2CCC3(C)C)C1O (stereo not drawn) [Compound I4]	5	5	5	5	5	3						
COC1=C(C)C(=O)N(c2cc3n(n2)CCCC3(C)C)C1O (stereo not drawn) [Compound I5]	5	5	5	5	5	4						
COC1=C(Cl)C(O)N(c2cc(C(C)(C)C)n(C)n2)C1=O (stereo not drawn) [Compound J1, 1-(5-tert-butyl-1-methyl-pyrazol-3-yl)-3-chloro-2-hydroxy-4-methoxy-2H-pyrrol-5-one]	5	5	5	5	5	3						
